Patent US9993494B2, “Compositions and methods for treating fibrotic disease” (eFFECTOR Therapeutics, Inc., priority 2014, dated 2018)

How the values were obtained:
Format in all cases: cell-based
[1] = test system: normal human lung fibroblasts; assay: Procollagen Type 1 C-Peptide (PIPC) EIA in culture media of TGFβ-treated fibroblasts; settings: fibroblasts treated with TGFβ, 24 hours, procollagen ELISA
Method: (§1) Briefly, normal human lung fibroblasts (Lonza #CC-2512; cell passage numbers 2 through 5 were used for all experiments) were seeded (Day 0) and cultured in Dulbecco's modified Eagle medium (DMEM) supplemented with 10% fetal bovine serum (FBS), penicillin, streptomycin and glutamax (Invitrogen) at 37° C. in a humidified incubator with 5% CO2 overnight. On Day 1, cells were harvested, washed with phosphate buffered saline (PBS), and then incubated for 48 hours in fresh serum-free DMEM supplemented with penicillin, streptomycin, and glutamax.
(§2) After this 24 hour incubation, procollagen type 1 levels were measured by collecting culture media, centrifuging to pellet cellular debris, and stored at −80° C. Procollagen Type 1 C-Peptide (PIPC) was quantified using the (PIP) EIA kit (Clontech, Cat. No. MK101) according to manufacturer's instructions. The TGFβ-treated fibroblasts of this example were examined by ribosomal profiling (about 6×10^6 cells/10 cm plate) and western blot analysis (about 1×10^6 cells/well of a 6-well plate).
as §1, with “(Lonza;” for “(Lonza #CC-2512;”, “CO2 conditions” for “CO2”, “glutamax. On Day 3, cells were harvested, resuspended in fresh serum-free DMEM containing silvestrol (1, 5, 10, 75, 100, 500, or 1000 nM) and 10 ng/ml TGFβ, and cultured for 24 hours. Controls included untreated cells and cells treated with only TGFβ.” for “glutamax.”
as §2, with “kit (Clontech)” for “kit (Clontech, Cat. No. MK101)”, “example are” for “example were”
The levels of α-SMA and procollagen type 1, markers of fibroblast transdifferentiation into myofibroblasts and a surrogate for fibrotic disease progression, were measured after a 24 hour incubation of fibroblasts in the presence or absence of TGFβ sieIF4A1 or siCont. The knockdown efficiency was determined by quantitating the eIF4A mRNA level by qPCR (data not shown) and assessing the protein level by western analysis (see FIG. 11).

[2] = test system: normal human lung fibroblasts; assay: Western blot of α-smooth muscle actin (α-SMA) in TGFβ-treated fibroblasts; settings: fibroblasts treated with TGFβ, 24 hours, western blot
Method: as §1, §2
TGFβ-dependent activation of the PI3K/Akt/mTOR and ERK pathways were also examined by western blot analysis (about 1×10^6 cells/well from a 6-well plate). Briefly, cells were washed with PBS and lysed in 1× cell lysis buffer (Cell Signaling Technology, Inc., Danvers, Mass.) for 15 minutes at 4° C. Lysates were briefly sonicated, clarified by centrifugation for 15 minutes at 14,000 rpm, and then supernatants were collected. Protein concentration in the soluble fraction was determined by BCA protein assay (Thermo Scientific, Rockford, Ill.). Samples of protein (20 μg) were resolved on 4-20% Bis-Tris gradient gel (Invitrogen, Carlsbad, Calif.) and transferred to nitrocellulose membrane. The resulting blots were blocked for 1 hour at room temperature with Odyssey blocking solution (LI-COR) and then incubated with primary antibodies at 4° C. overnight. The following day, each blot was washed three times for 10 minutes in TBST, and then incubated with goat anti-rabbit fluorescent conjugated secondary antibody (IRDye 800 CW at 1:20,000; LI-COR) for 1 hour at room temperature. The blots were washed and scanned, and then specific proteins were detected by using the LI-COR Odyssey infrared imager. The following antibodies were used at 1:1000 dilution: anti-α-actin (Sigma #A2547), anti-phospho-4EBP(Ser65), anti-phospho-rpS6(Ser235/236)(#4858), anti-phospho-ERK1/2(Thr202/Tyr204)(#4370), anti-phospho-p70S6K(Thr421/Ser424)(#9204), anti-phospho-pAKT(Ser473), anti-phospho-MNK(Thr197/202), and anti-β-actin (#4970). Unless otherwise indicated, the antibodies were from Cell Signaling Technology, Inc. (Danvers, Mass.).
as §1, with “(Lonza;” for “(Lonza #CC-2512;”, “CO2 conditions” for “CO2”, “glutamax. On Day 3, cells were harvested, resuspended in fresh serum-free DMEM containing silvestrol (1, 5, 10, 75, 100, 500, or 1000 nM) and 10 ng/ml TGFβ, and cultured for 24 hours. Controls included untreated cells and cells treated with only TGFβ.” for “glutamax.”
as §2, with “kit (Clontech)” for “kit (Clontech, Cat. No. MK101)”, “example are” for “example were”

[3] = test system: normal human lung fibroblasts; assay: Ribosomal profiling: translational efficiency in TGFβ-treated fibroblasts; settings: vs untreated fibroblasts
Method: Ribosomal profiling allows for measurement of changes in transcription and translation on a genome-wide basis accompanying TGFβ-dependent transformation of fibroblasts to myofibroblasts. Ribosomal profiles of the TGFβ-treated fibroblasts from Example 1 (about 6×10^6 cells/10 cm plate) were prepared and analyzed for changes in translational efficiencies with respect to potential disease-associated cellular changes accompanying this TGFβ-induced transformation.
Briefly, cells were washed with cold PBS supplemented with cycloheximide and lysed with 1× mammalian cell lysis buffer for 10 minutes on ice. Lysates were clarified by centrifugation for 10 minutes at 14,000 rpm and supernatants were collected. Cell lysates were processed to generate ribosomal protected fragments and total mRNA according to the instructions included with the ARTseq Ribosome Profiling Kit (Illumina, San Diego, Calif.). Sequencing of total RNA (RNA) and of ribosome-protected fragments of RNA (RPF) was carried out using RNA-Seq methodology according to the manufacturer's instructions (Illumina). To analyze the ribosomal profiles, RNA-Seq reads were processed with tools from the FASTX-Toolkit (fastq_quality_trimmer, fastx_clipper and fastx_trimmer). Unprocessed and processed reads were evaluated for a variety of quality measures using FastQC, and processed reads were mapped to the human genome using TopHat (see, e.g., Trapnell et al., Bioinformatics 25:1105, 2009). Gene-by-gene assessment of the number of fragments strictly and uniquely mapping to the coding region of each gene was conducted using HTSeq-count, a component of the HTSeq package. […] Genes with low counts in either RPF or RNA were excluded from differential analyses. Pathway and network analyses of differential data were conducted using Ingenuity Pathway Analysis (IPA).

CO[C@H]1C[C@@H]2CC[C@@H](C)[C@@](O)(O2)C(=O)C(=O)N2CCCC[C@H]2C(=O)O[C@H]([C@H](C)C[C@@H]2CC[C@@H](O)[C@H](OC)C2)CC(=O)[C@H](C)/C=C(\C)[C@@H](O)[C@@H](OC)C(=O)[C@H](C)C[C@H](C)/C=C/C=C/C=C/1C [Rapamycin]
% Renormalization Collagen [1]: ++ (++ = 30-60%)
% Renormalization α-SMA [2]: + (+ = 0-30%)

Nc1nccc2c1ncn2[C@@H]1O[C@H](CO)[C@@H](O)[C@H]1O [DZA, 3-deaza-adenosine]
% Renormalization Collagen [1]: + (+ = 0-30%)
% Renormalization α-SMA [2]: + (+ = 0-30%)

TGF-β
Log2FC TE AKT1 [3]: −0.15
Log2FC TE AKT2 [3]: −0.16
Log2FC TE AKT3 [3]: 0.35
Log2FC TE ATM [3]: −0.16
Log2FC TE EIF1 [3]: 0.75
Log2FC TE EIF2A [3]: 0.74
Log2FC TE EIF2AK1 [3]: −0.25
Log2FC TE EIF2AK3 [3]: 0.67
Log2FC TE EIF2AK4 [3]: −0.28
Log2FC TE EIF2B1 [3]: 0.57
Log2FC TE EIF2B2 [3]: 0.16
Log2FC TE EIF2B3 [3]: 0.54
Log2FC TE EIF2B4 [3]: −0.35
Log2FC TE EIF2B5 [3]: 0.46
Log2FC TE EIF2C2 [3]: 0.12
Log2FC TE EIF2S1 [3]: −0.18
Log2FC TE EIF2S2 [3]: −0.43
Log2FC TE EIF2S3 [3]: 1.05
Log2FC TE EIF3A [3]: 0.04
Log2FC TE EIF3B [3]: 0.30
Log2FC TE EIF3D [3]: 0.71
Log2FC TE EIF3E [3]: 1.33
Log2FC TE EIF3F [3]: 0.92
Log2FC TE EIF3G [3]: 0.55
Log2FC TE EIF3H [3]: 1.34
Log2FC TE EIF3I [3]: 0.29
Log2FC TE EIF3K [3]: 0.73
Log2FC TE EIF3L [3]: 1.63
Log2FC TE EIF3M [3]: 0.90
Log2FC TE EIF4A1 [3]: 0.35
Log2FC TE EIF4A2 [3]: 0.41
Log2FC TE EIF4A3 [3]: 0.19
Log2FC TE EIF4E [3]: −0.51
Log2FC TE EIF4G1 [3]: 0.10
Log2FC TE EIF4G2 [3]: 0.87
Log2FC TE EIF4G3 [3]: −0.54
Log2FC TE EIF5 [3]: 0.56
Log2FC TE FAU [3]: 0.35
Log2FC TE GRB2 [3]: 0.05
Log2FC TE GSK3B [3]: −0.13
Log2FC TE HRAS [3]: 0.13
Log2FC TE MAP2K1 [3]: −0.18
Log2FC TE MAP2K2 [3]: 0.02
Log2FC TE MAPK1 [3]: 0.12
Log2FC TE MAPK3 [3]: 0.29
Log2FC TE MRAS [3]: −0.45
Log2FC TE NRAS [3]: 0.19
Log2FC TE PABPC1 [3]: 0.16
Log2FC TE PAIP1 [3]: −0.69
Log2FC TE PIK3C2A [3]: −0.64
Log2FC TE PIK3C3 [3]: −0.09
Log2FC TE PIK3CA [3]: −0.66
Log2FC TE PIK3R4 [3]: −0.69
Log2FC TE PPP1CA [3]: 0.04
Log2FC TE PPP1CB [3]: 0.13
Log2FC TE PPP1CC [3]: 0.27
Log2FC TE PPP1R15A [3]: −0.09
Log2FC TE RAF1 [3]: 0.16
Log2FC TE RPL3 [3]: 1.68
Log2FC TE RPL4 [3]: 1.23
Log2FC TE RPL5 [3]: 1.49
Log2FC TE RPL6 [3]: 1.13
Log2FC TE RPL7 [3]: 0.59
Log2FC TE RPL7A [3]: 1.37
Log2FC TE RPL8 [3]: 0.69
Log2FC TE RPL9 [3]: 1.41
Log2FC TE RPL10 [3]: 0.74
Log2FC TE RPL10A [3]: 0.92
Log2FC TE RPL11 [3]: 0.78
Log2FC TE RPL12 [3]: 1.28
Log2FC TE RPL13 [3]: 0.83
Log2FC TE RPL13A [3]: 1.26
Log2FC TE RPL14 [3]: 1.08
Log2FC TE RPL15 [3]: 0.95
Log2FC TE RPL17 [3]: 0.97
Log2FC TE RPL18 [3]: 0.81
Log2FC TE RPL18A [3]: 1.06
Log2FC TE RPL19 [3]: 0.71
Log2FC TE RPL21 [3]: 0.83
Log2FC TE RPL22 [3]: 0.22
Log2FC TE RPL22L1 [3]: 0.84
Log2FC TE RPL23 [3]: 0.79
Log2FC TE RPL23A [3]: 1.03
Log2FC TE RPL24 [3]: 1.09
Log2FC TE RPL26 [3]: 1.42
Log2FC TE RPL27 [3]: 1.17
Log2FC TE RPL27A [3]: 1.17
Log2FC TE RPL28 [3]: 1.24
Log2FC TE RPL29 [3]: 1.16
Log2FC TE RPL30 [3]: 1.20
Log2FC TE RPL31 [3]: 0.80
Log2FC TE RPL32 [3]: 1.55
Log2FC TE RPL34 [3]: 1.21
Log2FC TE RPL35 [3]: 0.59
Log2FC TE RPL35A [3]: 1.22
Log2FC TE RPL36 [3]: 0.76
Log2FC TE RPL36AL [3]: −0.08
Log2FC TE RPL37 [3]: 1.31
Log2FC TE RPL37A [3]: 1.33
Log2FC TE RPL38 [3]: 1.00
Log2FC TE RPL41 [3]: 0.85
Log2FC TE RPLP0 [3]: 0.73
Log2FC TE RPLP1 [3]: 0.50
Log2FC TE RPLP2 [3]: 0.93
Log2FC TE RPS2 [3]: 0.88
Log2FC TE RPS3 [3]: 1.22
Log2FC TE RPS3A [3]: 1.48
Log2FC TE RPS4X [3]: 1.14
Log2FC TE RPS4Y1 [3]: 0.78
Log2FC TE RPS5 [3]: 0.75
Log2FC TE RPS6 [3]: 1.59
Log2FC TE RPS7 [3]: 1.13
Log2FC TE RPS8 [3]: 1.20
Log2FC TE RPS9 [3]: 0.97
Log2FC TE RPS10 [3]: 0.74
Log2FC TE RPS11 [3]: 0.97
Log2FC TE RPS12 [3]: 0.94
Log2FC TE RPS13 [3]: 1.15
Log2FC TE RPS14 [3]: 1.01
Log2FC TE RPS15 [3]: 0.74
Log2FC TE RPS15A [3]: 1.53
Log2FC TE RPS16 [3]: 1.10
Log2FC TE RPS18 [3]: 1.18
Log2FC TE RPS19 [3]: 0.99
Log2FC TE RPS20 [3]: 1.39
Log2FC TE RPS21 [3]: 1.36
Log2FC TE RPS23 [3]: 0.74
Log2FC TE RPS24 [3]: 0.66
Log2FC TE RPS25 [3]: 1.58
Log2FC TE RPS26 [3]: 0.71
Log2FC TE RPS27 [3]: 1.08
Log2FC TE RPS27A [3]: 0.71
Log2FC TE RPS27L [3]: −0.15
Log2FC TE RPS28 [3]: 0.74
Log2FC TE RPS29 [3]: 0.89
Log2FC TE RPSA [3]: 0.99
Log2FC TE RRAS [3]: 0.00
Log2FC TE RRAS2 [3]: 0.02
Log2FC TE SHC1 [3]: −0.04
Log2FC TE SOS2 [3]: 0.49
Log2FC TE UBA52 [3]: 0.87
